In brackets after ≈: the same amount, converted by molar mass. Read-outs that look alike come from different tables or passages of the source.
Columns and labels:
S. aureus Newman = experiment: MIC in RPMI-1640 macrophage growth medium; format: cell-based; settings: RPMI-1640 macrophage growth medium supplemented with 0.5% (v/v) FBS
Procedure: Determination of intracellular efficiency. For infection experiments, cells were seeded in 24-well plates in RPMI-1640 supplemented with 10% FBS and 150 nM phorbol 12-myristate 13-acetate (PMA) at a concentration of 10^5 cells/well. After 2 d, the cells were differentiated into macrophages and reached a cell density of ca. 2 x 10^5 cells/well. The medium was then removed and the cells were washed twice with PBS. An inoculum of ca. 2×10^6 CFU (colony-forming units) of S. aureus Newman in log phase (multiplicity of infection, MOI=10) was added to each well in RPMI/10% FBS and the plates were incubated at 37 °C and 5% CO2 in a water vapor-saturated atmosphere. The inoculum was checked by serial dilution and plating on CASO agar (1.5% peptone casein, 0.5% peptone soymeal, 0.5% NaCl, 1.5% agar, pH 7.3). After 2 h, the infected cells were washed three times with PBS (phosphate-buffered saline; pH 7.4) and incubated with fresh growth medium containing 10 µg/mL lysostaphin (≥500 U/mg) for 30 min in order to kill remaining extracellular bacteria. The initial load (Control t0) was checked by recovery of intracellular bacteria and plating on CASO agar. After three times washing with PBS the test compounds were added in RPMI-1640/0.5% FBS at the given concentrations for 18 h. After repeated washing with PBS the intracellular bacteria were recovered by adding ice-cooled water for 10 min and the bacterial suspensions were further diluted in 0.9% (w/v) NaCl prior to plating on CASO agar. The plates were incubated overnight at 37 °C and colonies were counted. The MIC values on S. aureus Newman in RPMI-1640 macrophage growth medium supplemented with 0.5% (v/v) fetal bovine serum (FBS) for neosorangicin A (2), sorangicin A (1) and the reference antibiotic rifampicin (RIF) were 0.01, 0.13 and 0.01 µg/mL, respectively. Human THP-1 macrophages were infected with S. aureus at an MOI (multiplicity of infection) of 10. After killing of extracellular bacteria, the cells were treated for 18 h with the antibiotics at their respective 1x and 8x MIC. […]

[1] = test system: Escherichia coli DSM-1116 + 3 µg/ml PMBN; experiment: Microbroth dilution assay (MIC) with PMBN; format: cell-based; settings: for Minimum inhibitory concentrations (MIC): 18-24 h
Procedure: (§1) Bacterial strains. All microorganisms were obtained from the German Collection of Microorganisms and Cell Cultures (Deutsche Sammlung für Mikroorganismen und Zellkulturen, DSMZ) and the American Type Culture Collection (ATCC) or were part of our internal strain collection.
(§2) Antimicrobial Testing. Sorangicin A (1) and Neosorangicin A (2) were tested in microbroth dilution assays on a panel of Gram-positive and Gram-negative bacteria. Overnight cultures were prepared from cryopreserved cultures and were diluted to achieve a final inoculum of 10^4-10^5 cfu/mL. Serial dilutions of compounds in DMSO were prepared in sterile 96-well plates in the test medium (cation-adjusted Müller-Hinton broth; supplemented with 2% (w/v) NaCl for S. aureus and 2.5% (v/v) lysed horse blood for Enterococcus and Streptococcus spp.) The cell suspension was added and microorganisms were grown for 18-24 h at either 30°C or 37°C. Streptococci and enterococci were grown under microaerophilic conditions. Growth inhibition was assessed by visual inspection and given MIC values are the lowest concentration of antibiotic at which there was no visible growth. Table 2. Antimicrobial activity; Minimum inhibitory concentrations (MIC, µg/mL) of neosorangicin A (2), sorangicin A (1), and a reference antibiotic (RIF; Rifampicin) on selected Gram-positive (I) and Gram-negative (II) species.
However, similar to 1, neosorangicin A (2) was not active on a rifampicin-resistant (Rif^R) derivative of S. aureus Newman, which confirms overlapping binding sites on RNA polymerase. […] In addition, the MIC values of 2 on efflux-deficient E. coli mutants (TolC as part of the AcrAB multidrug efflux system) were decreased.

[2] = test system: Staphylococcus aureus ATCC29213; experiment: Microbroth dilution assay (MIC); format: cell-based; settings: 18-24 h, 2% NaCl
Procedure: as §1, §2

[3] = test system: Enterococcus faecalis DSM-20478; experiment: Microbroth dilution assay (MIC); format: cell-based; settings: 2.5% lysed horse blood, microaerophilic; for Minimum inhibitory concentrations (MIC): 18-24 h
Procedure: as §1, §2

[4] = test system: Klebsiella pneumoniae DSM-30104; experiment: Microbroth dilution assay (MIC); format: cell-based; settings: for Minimum inhibitory concentrations (MIC): 18-24 h
Procedure: as §1, §2

[5] = test system: Acinetobacter baumannii DSM-30008; experiment: Microbroth dilution assay (MIC); format: cell-based; settings: for Minimum inhibitory concentrations (MIC): 18-24 h
Procedure: as §1, §2

[6] = test system: Staphylococcus aureus Newman (Rif^R); experiment: Microbroth dilution assay (MIC); format: cell-based; settings: for Minimum inhibitory concentrations (MIC): Staphylococcus aureus Newman (Rif^R), 18-24 h, 2% NaCl; for activity on rifampicin-resistant (Rif^R) derivative of S. aureus Newman: result in words
Procedure: as §1, §2

[7] = test system: Escherichia coli DSM-26863 (tolC3); experiment: Microbroth dilution assay (MIC); format: cell-based; settings: for Minimum inhibitory concentrations (MIC): Escherichia coli DSM-26863 (tolC3), 18-24 h
Procedure: as §1, §2

[8] = test system: Staphylococcus aureus Newman; experiment: Microbroth dilution assay (MIC); format: cell-based; settings: 18-24 h, 2% NaCl
Procedure: as §1, §2

[9] = test system: Escherichia coli DSM-1116; experiment: Microbroth dilution assay (MIC); format: cell-based; settings: for Minimum inhibitory concentrations (MIC): 18-24 h
Procedure: as §1, §2

[10] = test system: Escherichia coli (TolC-deficient); experiment: Microbroth dilution assay (MIC); format: cell-based; settings: for Minimum inhibitory concentrations (MIC): Escherichia coli (TolC-deficient), 18-24 h
Procedure: as §1, §2

[11] = test system: Staphylococcus aureus DSM-346; experiment: Microbroth dilution assay (MIC); format: cell-based; settings: 2% NaCl; for Minimum inhibitory concentrations (MIC): 18-24 h
Procedure: as §1, §2

[12] = test system: Enterococcus faecium DSM-20477; experiment: Microbroth dilution assay (MIC); format: cell-based; settings: 2.5% lysed horse blood, microaerophilic; for Minimum inhibitory concentrations (MIC): 18-24 h
Procedure: as §1, §2

[13] = test system: Streptococcus pneumoniae DSM-11865; experiment: Microbroth dilution assay (MIC); format: cell-based; settings: 2.5% lysed horse blood, microaerophilic; for Minimum inhibitory concentrations (MIC): 18-24 h
Procedure: as §1, §2

[14] = test system: Pseudomonas aeruginosa DSM-1128; experiment: Microbroth dilution assay (MIC); format: cell-based; settings: for Minimum inhibitory concentrations (MIC): 18-24 h
Procedure: as §1, §2

S. aureus RNA polymerase = molecular target: T1, S. aureus RNA polymerase (Staphylococcus aureus, UniProt P47768); experiment: RNA polymerase inhibition assay (ProFoldin kit); format: biochemical
T1 construct: purchased ProFoldin, MA
Procedure: The inhibition of S. aureus RNA polymerase by Sorangicin derivatives 1 and 2 was tested in vitro (bacterial RNA Polymerase Assay Kit; ProFoldin, MA). The samples were prepared and analyzed according to the manufacturer's protocol with slight modifications. In brief, serial dilutions (concentration range: 0.1 nM - 10 µM) of rifampicin, sorangicin A (1) and neosorangicin A (2) in black 384-well plates (low-volume, non-binding surface; Corning) were incubated for 1 h at room temperature with 25 nM RNA polymerase from S. aureus in assay buffer (42.5 mM HEPES, 42.5 mM NH4Cl, 2 mM DTT, 4 mM MgCl2, 0.005 % (v/v) Tween-20; pH 7.5) containing 0.5 mM NTPs and 1x DNA template. The reaction was monitored by incubation with a fluorescent probe for 5 min and measurement of the fluorescence intensity at 535 nm after excitation at 485 nm (Tecan Infinite M200PRO). Half-inhibitory concentrations (IC50) were determined in two independent experiments by sigmoidal curve fitting and given values are IC50 ± SD.

[15] = test system: intracellular S. aureus Newman; experiment: Intracellular efficacy in infected THP-1 macrophages; format: cell-based; settings: intracellular S. aureus Newman in PMA-differentiated THP-1 macrophages; MOI 10; 18 h treatment at 1x and 8x MIC
Procedure: (§3) Cells. Human acute monocytic leukemia THP-1 cells (ACC-16) were obtained from the German Collection of Microorganisms and Cell Cultures (DSMZ) and were maintained under conditions recommended by the depositor.
Determination of intracellular efficiency. For infection experiments, cells were seeded in 24-well plates in RPMI-1640 supplemented with 10% FBS and 150 nM phorbol 12-myristate 13-acetate (PMA) at a concentration of 10^5 cells/well. After 2 d, the cells were differentiated into macrophages and reached a cell density of ca. 2 x 10^5 cells/well. The medium was then removed and the cells were washed twice with PBS. An inoculum of ca. 2×10^6 CFU (colony-forming units) of S. aureus Newman in log phase (multiplicity of infection, MOI=10) was added to each well in RPMI/10% FBS and the plates were incubated at 37 °C and 5% CO2 in a water vapor-saturated atmosphere. The inoculum was checked by serial dilution and plating on CASO agar (1.5% peptone casein, 0.5% peptone soymeal, 0.5% NaCl, 1.5% agar, pH 7.3). After 2 h, the infected cells were washed three times with PBS (phosphate-buffered saline; pH 7.4) and incubated with fresh growth medium containing 10 µg/mL lysostaphin (≥500 U/mg) for 30 min in order to kill remaining extracellular bacteria. […] The plates were incubated overnight at 37 °C and colonies were counted. […]

Human THP-1 macrophages = experiment: Toxicity towards THP-1 macrophages (microscopic control); format: cell-based; settings: 18 h treatment at 1x and 8x MIC
Procedure: • Figure 1. Chemical structures of sorangicin A (1) and of a compound according to the present invention - neosorangicin A - (2). • Figure 2. A) Reduction of intracellular S. aureus Newman (CFU: colony-forming unit) in PMA-differentiated THP-1 cells after 18 h treatment with rifampicin (RIF), neosorangicin A (2) and sorangicin A (1) at their respective 1x and 8x MIC. B) Microscopic control of THP-1 cells that were either treated with neosorangicn A (2) or 0.5% (v/v) DMSO as solvent control. • Figure 3. Comparison of sorangicin and neosorangicin biosynthetic pathways. Wavy bond symbolize phosphopantheteinyl arms. ACP domains are shown as small, unlabeled circles. Domains that are missing from one of the two pathways are shown as asterisks.
as §3
Determination of intracellular efficiency. For infection experiments, cells were seeded in 24-well plates in RPMI-1640 supplemented with 10% FBS and 150 nM phorbol 12-myristate 13-acetate (PMA) at a concentration of 10^5 cells/well. After 2 d, the cells were differentiated into macrophages and reached a cell density of ca. 2 x 10^5 cells/well. […] The plates were incubated overnight at 37 °C and colonies were counted. […]

[16] = purified S. aureus RNA polymerase 25 nM, 1 h at room temperature, IC50 ± SD, two independent experiments, read-out: IC50
[17] = DSM1116, 18-24 h, read-out: Minimum inhibitory concentrations (MIC)
[18] = read-out: Minimum inhibitory concentrations (MIC)

T1 sequence (P47768 whole entry): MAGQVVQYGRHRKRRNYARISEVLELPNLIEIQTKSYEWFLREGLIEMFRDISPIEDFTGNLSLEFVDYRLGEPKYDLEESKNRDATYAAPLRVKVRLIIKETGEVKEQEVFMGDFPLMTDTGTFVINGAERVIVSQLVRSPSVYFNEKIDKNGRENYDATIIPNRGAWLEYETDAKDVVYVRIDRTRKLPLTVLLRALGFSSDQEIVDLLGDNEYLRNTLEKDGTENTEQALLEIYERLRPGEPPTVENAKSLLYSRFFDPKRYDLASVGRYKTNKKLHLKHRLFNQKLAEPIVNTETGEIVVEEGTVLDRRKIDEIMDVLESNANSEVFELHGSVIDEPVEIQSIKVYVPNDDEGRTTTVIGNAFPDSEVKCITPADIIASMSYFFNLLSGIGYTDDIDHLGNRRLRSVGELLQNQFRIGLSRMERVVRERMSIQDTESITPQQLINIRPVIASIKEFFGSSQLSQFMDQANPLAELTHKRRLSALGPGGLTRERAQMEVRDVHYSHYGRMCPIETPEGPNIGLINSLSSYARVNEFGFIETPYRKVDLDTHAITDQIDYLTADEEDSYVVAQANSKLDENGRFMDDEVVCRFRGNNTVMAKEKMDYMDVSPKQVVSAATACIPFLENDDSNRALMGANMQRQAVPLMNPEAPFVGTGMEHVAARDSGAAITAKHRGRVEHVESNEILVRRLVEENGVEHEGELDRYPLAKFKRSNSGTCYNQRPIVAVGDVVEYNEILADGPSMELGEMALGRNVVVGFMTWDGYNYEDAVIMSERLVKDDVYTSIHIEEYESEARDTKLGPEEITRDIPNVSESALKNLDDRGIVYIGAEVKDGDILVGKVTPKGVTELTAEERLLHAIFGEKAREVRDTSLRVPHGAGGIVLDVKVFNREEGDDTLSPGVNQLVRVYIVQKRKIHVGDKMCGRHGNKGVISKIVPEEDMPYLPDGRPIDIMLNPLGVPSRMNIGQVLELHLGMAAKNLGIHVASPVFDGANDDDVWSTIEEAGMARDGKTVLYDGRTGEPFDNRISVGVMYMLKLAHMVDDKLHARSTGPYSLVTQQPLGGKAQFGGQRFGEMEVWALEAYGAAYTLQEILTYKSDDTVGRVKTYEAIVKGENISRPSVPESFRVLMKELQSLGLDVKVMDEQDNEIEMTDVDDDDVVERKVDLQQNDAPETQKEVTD

Row | Compound | MIC values on S. aureus Newman (S. aureus Newman) [µg/mL] | Minimum inhibitory concentrations (MIC) [1] [µg/mL] | Minimum inhibitory concentrations (MIC) [2] [µg/mL] | Minimum inhibitory concentrations (MIC) [3] [µg/mL] | Minimum inhibitory concentrations (MIC) [4] [µg/mL] | Minimum inhibitory concentrations (MIC) [5] [µg/mL] | Minimum inhibitory concentrations (MIC) [6] [µg/mL] | activity on rifampicin-resistant (Rif^R) derivative of S. aureus Newman [6] | Minimum inhibitory concentrations (MIC) [7] [µg/mL] | Minimum inhibitory concentrations (MIC) [8] [µg/mL] | Minimum inhibitory concentrations (MIC) [9] [µg/mL] | Minimum inhibitory concentrations (MIC) [10] [µg/mL] | Minimum inhibitory concentrations (MIC) [11] [µg/mL] | Minimum inhibitory concentrations (MIC) [12] [µg/mL] | Minimum inhibitory concentrations (MIC) [13] [µg/mL] | Minimum inhibitory concentrations (MIC) [14] [µg/mL] | IC50 (S. aureus RNA polymerase; [16]) [nM] | also measured
1 | sorangicin A [compound 1] | 0.13 | 0.25 | 0.03 | 2 | 16 | 8 | > 64 | not active | 8 | 0.1 | 16 | 8 | 1 | 16 | 32 | 32 | 210 ± 120 | –
2 | CO[C@H]1/C=C/O[C@@]2(C)Oc3c(C)c(O)c4c(O)c(c(/C=N/N5CCN(C)CC5)c(O)c4c3C2=O)NC(=O)/C(C)=C\C=C\[C@H](C)[C@H](O)[C@@H](C)[C@@H](O)[C@@H](C)[C@H](OC(C)=O)[C@@H]1C [RIF, Rifampicin] | – | – | – | – | – | – | – | – | – | – | – | – | – | – | – | – | – | MIC (S. aureus Newman; Staphylococcus aureus, NEWMAN): 0.01 µg/mL (≈ 0.0122 µM); MIC [1, 17]: 0.4 µg/mL (≈ 0.486 µM); MIC [2, 18]: 0.01 µg/mL (≈ 0.0122 µM); MIC ([3]; DSM20478, 18-24 h, read-out: Minimum inhibitory concentrations (MIC)): 6.4 µg/mL (≈ 7.78 µM); MIC ([4]; DSM30104, 18-24 h, read-out: Minimum inhibitory concentrations (MIC)): 6.4 µg/mL (≈ 7.78 µM); MIC ([5]; DSM30008, 18-24 h, read-out: Minimum inhibitory concentrations (MIC)): 1.6 µg/mL (≈ 1.94 µM); MIC ([6]; Staphylococcus aureus, NEWMAN, read-out: Minimum inhibitory concentrations (MIC)): > 6.4 µg/mL; MIC ([7]; Escherichia coli, DSM26863, read-out: Minimum inhibitory concentrations (MIC)): 6.4 µg/mL (≈ 7.78 µM); MIC [8, 18]: 0.01 µg/mL (≈ 0.0122 µM); MIC [9, 17]: 6.4 µg/mL (≈ 7.78 µM); MIC ([10]; Escherichia coli, read-out: Minimum inhibitory concentrations (MIC)): 6.4 µg/mL (≈ 7.78 µM); MIC ([11]; DSM346, 18-24 h, read-out: Minimum inhibitory concentrations (MIC)): 0.006 µg/mL (≈ 0.00729 µM); MIC ([12]; DSM20477, 18-24 h, read-out: Minimum inhibitory concentrations (MIC)): > 6.4 µg/mL; MIC ([13]; DSM11865, 18-24 h, read-out: Minimum inhibitory concentrations (MIC)): 0.1 µg/mL (≈ 0.122 µM); MIC ([14]; DSM1128, 18-24 h, read-out: Minimum inhibitory concentrations (MIC)): > 6.4 µg/mL; IC50 (S. aureus RNA polymerase): 30 ± 20 nM
3 | neosorangicin A [compound 2] | 0.01 | 0.25 | 0.01 | 0.5 | 8 | 8 | > 64 | not active | 2 | 0.01 | 8 | 1 | 0.25 | 8 | 0.5 | 8 | 60 ± 10 | reduction of the bacterial load [15]: 3 Log; toxicity towards the human macrophages (Human THP-1 macrophages): without displaying any apparent toxicity

— patent publication EP3498714B1 (priority 2017, dated 2019)
